{
  "source": "patent US10525139B2",
  "about": "“Folate-conjugated molecules for delivery of toxic small molecule inhibitors to cancer cells and methods of use” (priority 2014, dated 2020)",
  "key": {"PDX T-ALL cells": {"test_system": "PDX T-ALL cells", "assay": "JQ-FT treatment of patient-derived xenograft (PDX) T-ALL cells in vitro", "type": "cell-based, human", "method": "Errors bars denote mean±SD of 4 replicates. […] The blot was stained with an antibody against the C-terminus of NOTCH1 that recognizes both the furin-processed NOTCH1 transmembrane subunit (TM) and the unprocessed NOTCH1 precursor (FL). The immunoblot was also stained with anti-ICN1 antibody. GAPDH was used as a loading control. […] Error bars indicate the mean±SD of 4 replicates. Data were analyzed using the ΔΔCT method and plotted as a percentage relative to the control gene RPL13A. Statistical significance among groups for treated vs. vehicle (DMSO) samples (***P≤0.0001) was determined by one-way ANOVA with Bonferroni's correction for multiple comparison testing. […] The blot was stained with an antibody against the C-terminus of NOTCH1 (N1) that recognizes both the furin-processed NOTCH1 transmembrane subunit (TM). GAPDH was used as a loading control. […] Cells were probed with an anti-NOTCH1 antibody (green) and nuclei were counterstained with DAPI. […] Error bars indicate the mean±SD of 4 replicates. Data were analyzed using the ΔΔCT method and plotted as a percentage relative to the control gene RPL13A. Statistical significance (***P≤0.001. ****P≤0.0001) for treated vs. vehicle (DMSO) was determined by one-way ANOVA with Bonferroni's correction for multiple comparison testing.\nTo assess the translational significance of these findings, we studied patient-derived xenografts (PDX) from T-ALL patients at the Dana-Farber Cancer Institute."}, "[1]": {"assay": "Maximal tolerated dose in mice", "type": "in vivo", "method": "Though the JQ-FT conjugate has not, as yet, been optimized for pharmacologic properties, we are eager to explore the utility of the compound as an in vivo chemical probe, while assessing putative tolerability of folate-conjugated thapsigargins. We first established the maximal tolerated dose (MTD) of JQ-FT as 60 mg/kg/day in mice, as administered by daily intraperitoneal injection. […] We therefore initiated treatment studies of JQ-FT (60 mg/kg IP daily) in mice with established T-ALL."}, "[2]": {"settings": "NOTCH1-mutated PDX cells, 24 hours"}},
  "data": [
    {"smiles": "C/C=C(/C)C(=O)O[C@H]1C(C)=C2C([C@@H]1OC(=O)CCCCCCC)[C@@](C)(OC(C)=O)C[C@H](OC(=O)CC[C@H](NC(=O)c1ccc(NCc3cnc4nc(N)[nH]c(=O)c4n3)cc1)C(=O)O)[C@@]1(O)[C@H]2OC(=O)[C@@]1(C)O", "note": "(stereo partly shown) [JQ-FT]", "values": [
      {"measurement": "ICN1 in NOTCH1-mutated PDX cells", "setting": "PDX T-ALL cells; [2]", "result": "depletion of detectable ICN1"},
      {"measurement": "transmembrane NOTCH1 in NOTCH1-mutated PDX cells", "setting": "PDX T-ALL cells; [2]", "result": "loss of transmembrane NOTCH1"},
      {"measurement": "expression of NOTCH1 target genes DTX and MYC in NOTCH1 mutant PDX samples", "setting": "PDX T-ALL cells; NOTCH1 mutant samples, 24 hours", "result": "decreased"},
      {"measurement": "NOTCH1 processing in WT NOTCH1 PDX cells", "setting": "PDX T-ALL cells; PDX T-ALL cells possessing WT NOTCH1", "result": "no effect was observed"},
      {"measurement": "NOTCH1 target gene transcription in WT PDX samples", "setting": "PDX T-ALL cells; WT PDX samples, 24 hours", "result": "no transcriptional changes were observed"},
      {"measurement": "MTD relative to MTD of unconjugated thapsigargin", "setting": "[1]", "result": 150, "unit": "fold"},
      {"measurement": "MTD", "setting": "[1]; mouse, in vivo, ip, daily intraperitoneal injection", "result": 60, "unit": "mg/kg/day"}
    ]}
  ]
}
